Among the test systems are SF-539 CNS; HT29 colon; UO-31 renal; HOP-62 NSCLC; PC-3 prostate; 786-0 renal; K-562 leukemia; SK-MEL-2 melanoma; MOLT-4 leukemia; NCI-H522 lung; DU-145 prostate; HL-60(TB) leukemia; MDA-N; MDA-MB-231 breast; LOX IMVI melanoma; SN12C renal; SNB-75 CNS; UACC-62 melanoma; COLO 205 colon; BT-549 breast.
Experiment in all cases: growth of human tumour cells (NCI), 48 h

The structures appear in SMILES notation.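 Five concentrations, 48 hours, 96-well plates. TGI: concentration producing complete growth inhibition.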 Bounds are passed on as bounds.

Take `COc1ccc(/C=C2\Sc3nnc(CNc4ccc(Cl)cc4)n3N=C2c2cc(F)c(Cl)cc2Cl)cc1OC`: the TGI with SF-539 CNS, in the assay with HT29 colon, in the assay with UO-31 renal, with HOP-62 NSCLC, in the assay on PC-3 prostate and in the assay on 786-0 renal was above 100 µM throughout. In addition, the TGI in the assay on K-562 leukemia, in the assay with SK-MEL-2 melanoma, with MOLT-4 leukemia, with NCI-H522 lung, in the assay with DU-145 prostate and in the assay with HL-60(TB) leukemia was above 100 µM each time. In addition, the TGI in the assay with MDA-N, in the assay with MDA-MB-231 breast and in the assay on LOX IMVI melanoma was above 100 µM throughout.

Consider `COc1ccc(/C=C/C(=O)CC(=O)/C=C/c2ccc(OC)cc2)cc1`, for which the TGI was 78.7 µM with SF-539 CNS; above 100 µM in the assay with SN12C renal; above 100 µM in the assay on SNB-75 CNS; above 100 µM in the assay with HT29 colon; above 100 µM in the assay with UO-31 renal; above 100 µM in the assay on HOP-62 NSCLC. In addition, the TGI was above 100 µM in the assay on PC-3 prostate; 89.1 µM in the assay with 786-0 renal; above 100 µM with K-562 leukemia; above 100 µM in the assay on SK-MEL-2 melanoma; 70.8 µM in the assay on MOLT-4 leukemia; 67 µM in the assay on NCI-H522 lung. Besides, the TGI with UACC-62 melanoma is above 100 µM; in the assay on DU-145 prostate, above 100 µM; in the assay on HL-60(TB) leukemia, 64.5 µM; with MDA-N it was above 100 µM; in the assay with MDA-MB-231 breast, above 100 µM; with LOX IMVI melanoma it was 25.1 µM. This molecule showed a TGI in the assay on COLO 205 colon above 100 µM.

As for `[O-][N+]1=NC(c2ccccc2)=C1c1ccccc1`, the TGI with SF-539 CNS, in the assay on SN12C renal, in the assay on SNB-75 CNS, in the assay with HT29 colon, in the assay on UO-31 renal and in the assay with HOP-62 NSCLC was above 50 µM each time. In addition, the TGI with PC-3 prostate, in the assay on 786-0 renal, with K-562 leukemia, in the assay with SK-MEL-2 melanoma, in the assay with MOLT-4 leukemia and with NCI-H522 lung was above 50 µM each time. The TGI with UACC-62 melanoma, with DU-145 prostate, with HL-60(TB) leukemia, in the assay on MDA-N, with MDA-MB-231 breast and with LOX IMVI melanoma was above 50 µM each time. In the assay on COLO 205 colon, this molecule came in with a TGI above 50 µM.

On to `O=C(O)CNn1c(SCC(=O)O)nnc(/C=C/c2c(O)ccc3ccccc23)c1=O`, for which the TGI in the assay with SF-539 CNS, in the assay with SN12C renal, in the assay on HT29 colon, with UO-31 renal, in the assay on HOP-62 NSCLC and with PC-3 prostate was above 100 µM throughout. For the same molecule, the TGI in the assay on 786-0 renal is above 100 µM; with K-562 leukemia, 62.7 µM; with SK-MEL-2 melanoma, above 100 µM; in the assay on NCI-H522 lung, above 100 µM; in the assay on UACC-62 melanoma it was 74.4 µM; with DU-145 prostate, above 100 µM. In addition, the TGI with HL-60(TB) leukemia was 25.9 µM; with BT-549 breast, 63.8 µM; in the assay with MDA-N it was above 100 µM; in the assay with LOX IMVI melanoma, 31.8 µM; with COLO 205 colon, above 100 µM.

On to `CCN(CC)CCCNc1nc(=O)[nH]c(C)c1C(=O)Nc1ccc2c(c1)c1ccccc1n2CC`, for which the TGI in the assay with SF-539 CNS, in the assay with SN12C renal, in the assay on SNB-75 CNS, in the assay with HT29 colon, in the assay with UO-31 renal and in the assay with HOP-62 NSCLC was above 100 µM throughout. Besides, the TGI with PC-3 prostate, with 786-0 renal, with K-562 leukemia, in the assay with SK-MEL-2 melanoma, with MOLT-4 leukemia and with NCI-H522 lung was above 100 µM each time. Also, the TGI with UACC-62 melanoma, in the assay on DU-145 prostate, with HL-60(TB) leukemia, with MDA-N, in the assay on MDA-MB-231 breast and with LOX IMVI melanoma was above 100 µM each time. The TGI in the assay on COLO 205 colon was above 100 µM.

Regarding `COc1ccc(/C=C2/NC(=S)N=C2Cl)cc1`, the TGI in the assay on SF-539 CNS, in the assay on SN12C renal, in the assay with SNB-75 CNS, in the assay on HT29 colon, with UO-31 renal and in the assay with HOP-62 NSCLC was above 100 µM in each case. In addition, the TGI with PC-3 prostate, in the assay with 786-0 renal, in the assay on K-562 leukemia, with SK-MEL-2 melanoma, in the assay with MOLT-4 leukemia and with NCI-H522 lung was above 100 µM in each case. For the same molecule, the TGI in the assay on DU-145 prostate, in the assay with HL-60(TB) leukemia, in the assay with MDA-N, in the assay with MDA-MB-231 breast, in the assay on LOX IMVI melanoma and with COLO 205 colon was above 100 µM throughout.

These data come from PubChem BioAssay (NCI).
